Laboratory results published in EP4786487A1, “PEPTIDE” (Peptidream Inc, priority 2023, dated 2025).
Where two headings read alike, the source gives them in different places. Starred links: 1 amine or outer side, 2 acyl side, 3 side chain; linkers in the order of their positions; H or OH if unused. Positions of bridges follow the written chain, without caps; N, C: chain ends. Non-standard residues stand in square brackets, D forms with d. Residues, ends and D or L forms follow the SMILES beside them. Groups on a side chain read outwards from the residue. *: point of attachment. Phe(3-OCH2COOH) = N[C@@H](Cc1cccc(OCC(=O)O)c1)C(=O)O; Piperidine(4-CH2CH2CONH2) = NC(=O)CCC1CCN(*)CC1; Phe(4-COOH) = N[C@@H](Cc1ccc(C(=O)O)cc1)C(=O)O; Piperazinyl(4-CH2COOH) = O=C(O)CN1CCN(*)CC1; Piperidinyl(4-CH2COOH) = O=C(O)CC1CCN(*)CC1; Gly(decyl) = CCCCCCCCCC[C@H](N)C(=O)O; X1 = CCCCCCC[C@H](N[*:1])C(=O)[*:2]; NMeCha = CN[C@@H](CC1CCCCC1)C(=O)O; NMeF = CN[C@@H](Cc1ccccc1)C(=O)O; NMeE = CN[C@@H](CCC(=O)O)C(=O)O; Cha = N[C@@H](CC1CCCCC1)C(=O)O; NMeA = CN[C@@H](C)C(=O)O; X9 = NC(=O)CC1CCN(*)CC1; CO = O=C([*:1])[*:2]; Sar = CNCC(=O)O

Experiments:
Assay type in all cases: cell-based
GDF-11 = biological target: T1, GDF-11 (Homo sapiens, UniProt O95390); assay: Reporter gene assay for myostatin signaling in HepG2 cell line, Evaluation Procedure (1), GDF-11 inhibition; conditions: read-out: IC50 (Luciferase) GDF-11 HepG2
T1 construct: purchased R&D systems 1958-GD-G8/CF
T1 sequence (O95390 299-407): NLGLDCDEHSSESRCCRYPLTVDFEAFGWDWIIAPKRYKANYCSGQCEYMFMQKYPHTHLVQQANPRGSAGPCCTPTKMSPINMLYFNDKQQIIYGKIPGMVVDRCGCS
Method in brief: (§1)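 HepG2 cells transfected with pGL3(CAGA)12-luciferase reporter, serum-starved in 0.1% BSA medium, then stimulated with myostatin or GDF-11 plus 4-fold peptide dilutions (0.006–100 nmol/L for myostatin, 0.12–2000 nmol/L for GDF-11) for 20–24 h at 37 °C. Luminescence read with One-Glo; IC50 calculated.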

Myostatin [1] = assay: Reporter gene assay for myostatin signaling in HepG2 cell line, Evaluation Procedure (1), myostatin inhibition; conditions: GDF-11 IC50 versus Myostatin IC50
Method in brief: as §1

Myostatin [2] = biological target: T2, Myostatin (Homo sapiens, UniProt O14793); assay: as above; conditions: read-out: IC50 (Luciferase) Myostatin HepG2
T2 construct: active myostatin (also called mature myostatin) is a homodimer consisting of two C-terminal growth factor domains; purchased R&D systems 788-G8/CF
T2 sequence (O14793 267-375): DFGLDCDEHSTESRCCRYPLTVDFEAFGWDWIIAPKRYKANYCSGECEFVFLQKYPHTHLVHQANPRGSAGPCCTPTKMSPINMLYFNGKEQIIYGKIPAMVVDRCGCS
Method in brief: as §1

Row | IC50 (GDF-11; Method A: GDF-11 10 ng/mL) [nM] | IC50 (Myostatin [2]; Method A: Myostatin 10 ng/mL) [nM] | IC50 (GDF-11; Method B: GDF-11 1 ng/mL) [nM] | IC50 (Myostatin [2]; Method B: Myostatin 1 ng/mL) [nM] | Compound | Selectivity (Myostatin [1]; Method A) | Selectivity (Myostatin [1]; Method B)
1 | 13600 | 17.7 |  |  | CCCCCCC[C@@H]1NC(=O)[C@H](CC2CCCCC2)NC(=O)[C@H](CCCNC(=N)N)NC(=O)[C@H](Cc2ccc(C(=O)O)cc2)NC(=O)[C@H](CCCCNC(=O)N2CCN(CC(=O)O)CC2)NC(=O)[C@H]2CCCN2C(=O)[C@H]([C@@H](C)CC)NC(=O)[C@H](CC2CCCCC2)N(C)C(=O)[C@H](Cc2ccc(O)cc2)NC(=O)[C@H](Cc2c[nH]c3ccccc23)NC(=O)[C@@H](CCC(=O)O)NC(=O)[C@H](C)NC(=O)CSC[C@H](C(=O)N2CCN(CC(=O)O)CC2)NC(=O)[C@H](Cc2ccccc2)N(C)C(=O)[C@H](C)N(C)C1=O [Myostatin_99_v244] ({CH2CO}-A[dE]WY[NMeCha]I[dP]K([CO-Piperazinyl(4-CH2COOH)])[Phe(4-COOH)]R[Cha][X1][NMeA][NMeF][dC]-{Piperazinyl(4-CH2COOH)}; thioether N-15) | 771 | 
2 | 3530 | 21.5 |  |  | CCCCCCC[C@@H]1NC(=O)[C@H](CC2CCCCC2)N(C)C(=O)[C@H](CCCNC(=N)N)NC(=O)[C@H](Cc2ccc(C(=O)O)cc2)NC(=O)[C@H](CCCCNC(=O)N2CCN(CC(=O)O)CC2)NC(=O)[C@H]2CCCN2C(=O)[C@H]([C@@H](C)CC)NC(=O)[C@H](CC2CCCCC2)N(C)C(=O)[C@H](Cc2ccc(O)cc2)NC(=O)[C@H](Cc2c[nH]c3ccccc23)NC(=O)[C@@H](CCC(=O)O)NC(=O)[C@H](C)NC(=O)CSC[C@H](C(=O)N2CCN(CC(=O)O)CC2)NC(=O)[C@H](Cc2ccccc2)N(C)C(=O)[C@H](C)N(C)C1=O [Myostatin_99_v248] ({CH2CO}-A[dE]WY[NMeCha]I[dP]K([CO-Piperazinyl(4-CH2COOH)])[Phe(4-COOH)]R[NMeCha][X1][NMeA][NMeF][dC]-{Piperazinyl(4-CH2COOH)}; thioether N-15) | 164 | 
3 | 119 | 0.5 |  |  | CCCCCCC[C@@H]1NC(=O)[C@H](CC2CCCCC2)NC(=O)[C@H](CCCNC(=N)N)NC(=O)[C@H](Cc2ccc(C(=O)O)cc2)NC(=O)[C@H](CCCCNC(=O)N2CCN(CC(=O)O)CC2)NC(=O)CN(C)C(=O)[C@H]([C@@H](C)CC)NC(=O)[C@H](CC2CCCCC2)N(C)C(=O)[C@H](Cc2ccc(O)cc2)NC(=O)[C@H](Cc2c[nH]c3ccccc23)NC(=O)[C@@H](CCC(=O)O)NC(=O)[C@H](C)NC(=O)CSC[C@H](C(=O)N2CCN(CC(=O)O)CC2)NC(=O)[C@H](Cc2ccccc2)N(C)C(=O)[C@H](C)N(C)C1=O [Myostatin_99_v249] ({CH2CO}-A[dE]WY[NMeCha]I[Sar]K([CO-Piperazinyl(4-CH2COOH)])[Phe(4-COOH)]R[Cha][X1][NMeA][NMeF][dC]-{Piperazinyl(4-CH2COOH)}; thioether N-15) | 237 | 
4 | 2440 | 5.7 |  |  | CCCCCCC[C@@H]1NC(=O)[C@H](Cc2ccccc2)N(C)C(=O)[C@H](CCCNC(=N)N)NC(=O)[C@H](Cc2ccc(C(=O)O)cc2)NC(=O)[C@H](Cc2cccc(OCC(=O)O)c2)NC(=O)[C@H]2CCCN2C(=O)[C@H]([C@@H](C)CC)NC(=O)[C@H](CC2CCCCC2)N(C)C(=O)[C@H](Cc2ccc(O)cc2)NC(=O)[C@H](Cc2c[nH]c3ccccc23)NC(=O)[C@@H](CCC(=O)O)NC(=O)[C@H](C)NC(=O)CSC[C@H](C(=O)N2CCN(CC(=O)O)CC2)NC(=O)[C@H](Cc2ccccc2)N(C)C(=O)[C@H](C)N(C)C1=O [Myostatin_99_v253] ({CH2CO}-A[dE]WY[NMeCha]I[dP][Phe(3-OCH2COOH)][Phe(4-COOH)]R[NMeF][X1][NMeA][NMeF][dC]-{Piperazinyl(4-CH2COOH)}; thioether N-15) | 428 | 

More lines, now with the values behind:

Row | Compound | IC50 (GDF-11; Method A: GDF-11 10 ng/mL) [nM] | IC50 (Myostatin [2]; Method A: Myostatin 10 ng/mL) [nM] | IC50 (GDF-11; Method B: GDF-11 1 ng/mL) [nM] | IC50 (Myostatin [2]; Method B: Myostatin 1 ng/mL) [nM] | Selectivity (Myostatin [1]; Method A) | Selectivity (Myostatin [1]; Method B)
5 | CCCCCCC[C@@H]1NC(=O)[C@H](Cc2ccccc2)N(C)C(=O)[C@H](CCCNC(=N)N)NC(=O)[C@H](Cc2ccc(C(=O)O)cc2)NC(=O)[C@H](Cc2cccc(OCC(=O)O)c2)NC(=O)[C@H]2CCCN2C(=O)[C@H]([C@@H](C)CC)NC(=O)[C@H](Cc2ccccc2)N(C)C(=O)[C@H](Cc2ccc(O)cc2)NC(=O)[C@H](Cc2c[nH]c3ccccc23)NC(=O)[C@@H](CCC(=O)O)NC(=O)[C@H](C)NC(=O)CSC[C@H](C(=O)N2CCN(CC(=O)O)CC2)NC(=O)[C@H](Cc2ccccc2)N(C)C(=O)[C@H](C)N(C)C1=O [Myostatin_99_v254] ({CH2CO}-A[dE]WY[NMeF]I[dP][Phe(3-OCH2COOH)][Phe(4-COOH)]R[NMeF][X1][NMeA][NMeF][dC]-{Piperazinyl(4-CH2COOH)}; thioether N-15) | 3310 | 3.6 |  |  | 921 | 
6 | CCCCCCC[C@@H]1NC(=O)[C@H](Cc2ccccc2)N(C)C(=O)[C@H](CCCNC(=N)N)NC(=O)[C@H](Cc2ccc(C(=O)O)cc2)NC(=O)[C@H](Cc2cccc(OCC(=O)O)c2)NC(=O)CN(C)C(=O)[C@H]([C@@H](C)CC)NC(=O)[C@H](CC2CCCCC2)N(C)C(=O)[C@H](Cc2ccc(O)cc2)NC(=O)[C@H](Cc2c[nH]c3ccccc23)NC(=O)[C@@H](CCC(=O)O)NC(=O)[C@H](C)NC(=O)CSC[C@H](C(=O)N2CCN(CC(=O)O)CC2)NC(=O)[C@H](Cc2ccccc2)N(C)C(=O)[C@H](C)N(C)C1=O [Myostatin_99_v255] ({CH2CO}-A[dE]WY[NMeCha]I[Sar][Phe(3-OCH2COOH)][Phe(4-COOH)]R[NMeF][X1][NMeA][NMeF][dC]-{Piperazinyl(4-CH2COOH)}; thioether N-15) | 191 | 1.6 |  |  | 119 | 
7 | CCCCCCCCCC[C@@H]1NC(=O)[C@H](Cc2ccccc2)N(C)C(=O)[C@H](CCCNC(=N)N)NC(=O)[C@H](Cc2ccc(C(=O)O)cc2)NC(=O)[C@H](Cc2cccc(OCC(=O)O)c2)NC(=O)[C@H]2CCCN2C(=O)[C@H]([C@@H](C)CC)NC(=O)[C@H](Cc2ccccc2)N(C)C(=O)[C@H](Cc2ccc(O)cc2)NC(=O)[C@H](Cc2c[nH]c3ccccc23)NC(=O)[C@H](C)NC(=O)[C@H](C)NC(=O)CSC[C@H](C(=O)N2CCN(CC(=O)O)CC2)NC(=O)[C@H](Cc2ccccc2)N(C)C(=O)[C@H](CCC(=O)O)N(C)C1=O [Myostatin_99_v309] ({CH2CO}-AAWY[NMeF]I[dP][Phe(3-OCH2COOH)][Phe(4-COOH)]R[NMeF][Gly(decyl)][NMeE][NMeF][dC]-{Piperazinyl(4-CH2COOH)}; thioether N-15) |  |  | 25 | 0.09 |  | 287
8 | CCCCCCC[C@@H]1NC(=O)[C@H](Cc2ccccc2)N(C)C(=O)[C@H](CCCNC(=N)N)NC(=O)[C@H](Cc2ccc(C(=O)O)cc2)NC(=O)[C@H](Cc2cccc(OCC(=O)O)c2)NC(=O)CN(C)C(=O)[C@H]([C@@H](C)CC)NC(=O)[C@H](Cc2ccccc2)N(C)C(=O)[C@H](Cc2ccc(O)cc2)NC(=O)[C@H](Cc2c[nH]c3ccccc23)NC(=O)[C@H](C)NC(=O)[C@H](C)NC(=O)CSC[C@H](C(=O)N2CCC(CC(N)=O)CC2)NC(=O)[C@H](Cc2ccccc2)N(C)C(=O)[C@H](CCC(=O)O)N(C)C1=O [Myostatin_99_v315] ({CH2CO}-AAWY[NMeF]I[Sar][Phe(3-OCH2COOH)][Phe(4-COOH)]R[NMeF][X1][NMeE][NMeF][dC]-X9; thioether N-15) |  |  | 56.8 | 0.1 |  | 541.6
9 | CCCCCCC[C@@H]1NC(=O)[C@H](Cc2ccccc2)N(C)C(=O)[C@H](CCCNC(=N)N)NC(=O)[C@H](Cc2ccc(C(=O)O)cc2)NC(=O)[C@H](Cc2cccc(OCC(=O)O)c2)NC(=O)CN(C)C(=O)[C@H]([C@@H](C)CC)NC(=O)[C@H](Cc2ccccc2)N(C)C(=O)[C@H](Cc2ccc(O)cc2)NC(=O)[C@H](Cc2c[nH]c3ccccc23)NC(=O)[C@H](C)NC(=O)[C@H](C)NC(=O)CSC[C@H](C(=O)N2CCC(CCC(N)=O)CC2)NC(=O)[C@H](Cc2ccccc2)N(C)C(=O)[C@H](CCC(=O)O)N(C)C1=O [Myostatin_99_v316] ({CH2CO}-AAWY[NMeF]I[Sar][Phe(3-OCH2COOH)][Phe(4-COOH)]R[NMeF][X1][NMeE][NMeF][dC]-{Piperidine(4-CH2CH2CONH2)}; thioether N-15) |  |  | 89.7 | 0.37 |  | 239.8
10 | CCCCCCCCCC[C@@H]1NC(=O)[C@H](Cc2ccccc2)N(C)C(=O)[C@H](CCCNC(=N)N)NC(=O)[C@H](Cc2ccc(C(=O)O)cc2)NC(=O)[C@H](Cc2cccc(OCC(=O)O)c2)NC(=O)[C@H]2CCCN2C(=O)[C@H]([C@@H](C)CC)NC(=O)[C@H](Cc2ccccc2)N(C)C(=O)[C@H](Cc2ccc(O)cc2)NC(=O)[C@H](Cc2c[nH]c3ccccc23)NC(=O)[C@H](C)NC(=O)[C@H](C)NC(=O)CSC[C@H](C(=O)N2CCC(CC(=O)O)CC2)NC(=O)[C@H](Cc2ccccc2)N(C)C(=O)[C@H](CCC(=O)O)N(C)C1=O [Myostatin_99_v335] ({CH2CO}-AAWY[NMeF]I[dP][Phe(3-OCH2COOH)][Phe(4-COOH)]R[NMeF][Gly(decyl)][NMeE][NMeF][dC]-{Piperidinyl(4-CH2COOH)}; thioether N-15) |  |  | 46.6 | 0.32 |  | 145.0
